The results in this text go back to paper PMC9833666, “Designing and identifying β-hairpin peptide macrocycles with antibiotic potential” (Science Advances, 2023).

Data set [1] deals with Escherichia coli W3110. In kind it is cell-based. Conditions: for Ec W3110 MIC MH: E. coli W3110, MH medium; for W3110 MIC MHII: E. coli W3110, MHII medium; for Ec W3110 MIC RPMI: E. coli W3110, RPMI medium.
The nature of data set [2]: Circular dichroism (CD) spectroscopy (secondary structure, aggregation). Type of data set: physicochemical. Conditions: CD at 450 µg/ml to 50 µg/ml, 10 mM potassium phosphate pH 7.4. A general note: CD spectra are sensitive to the conformation of chiral molecules.
Data set [3] is described as follows: High-resolution LC-MS, percentage with intramolecular disulfide bond (%S-S). In kind it is physicochemical. Here is the method:
Stock peptides were diluted into PBS (pH 7.4) at 0.1 mg/ml in a volume of 150 μl and placed into 2-ml autosampler vials with small volume inserts (Fisherbrand, 03-391-8). Samples were separated by a C8 LC column, and an extracted ion chromatogram was generated for the most prevalent charge state isotopes. Mass spectra were generated for each extracted LC peak using an Agilent Technologies 6546 Accurate Mass quadrupole orthogonal acceleration–time-of-flight LC-MS instrument. Analysis was performed using Agilent MassHunter Qualitative software v10. The isotope distribution for each LC peak from each sample was compared to predicted distributions created using Agilent’s Isotope Distribution Calculator. Percentages of molecules with disulfide bonds was determined by comparing the area under the curve for each LC peak containing a disulfide bond over the total area of all relevant peaks (sum area %) and reported as a mean of three technical replicates ± 1 SD.

The subject of data set [4] is E. coli W3110. Nature of the data set: Surface-localized antimicrobial display (SLAY), log2 fold change in reads. In kind it is cell-based, Escherichia coli. To be noted: 3 h 37°C; for l2FC_IPTG_15: induced (15 μM IPTG, low induction) vs uninduced; for l2FC_IPTG_100: induced (100 μM IPTG, high induction) vs uninduced. Here is the method:
SLAY procedures have been detailed previously ([25], [26]). Briefly, 100 μl of E. coli W3110 frozen cells containing the pooled SynCH plasmid library were recovered in 10 ml of LB supplemented with carbenicillin (75 μg/ml) for 2 hours. The culture was then back-diluted to an OD of 0.05, and three triplicate 5-ml cultures were set up in LB supplemented with carbenicillin (75 μg/ml). Triplicate reactions included uninduced (0 μM IPTG), low induction (15 μM IPTG), and high induction (100 μM IPTG). All triplicate cultures were then grown for 3 hours at 37°C. Plasmids from each triplicate culture were isolated via Miniprep, and Illumina sequencing primers (see table S6) were used to produce an amplicon via PCR from plasmids from each culture containing a unique i7 barcode identifier. Amplicons were then gel extracted, cleaned, concentrated, and sent to Genewiz for next-generation sequencing by Illumina HiSeq technology with 30% added Phi-X DNA.
Methods of SLAY analysis have been previously described elsewhere. Here, raw sequencing reads were trimmed of adapter sequences using Flexbar ([30]) and then assessed for quality via FastQC ([31]). Next, trimmed reads were mapped to a reference derived from all possible SynCH sequences using Kallisto ([32]). Last, log2 fold change estimates and other relevant statistics were calculated using DESeq2 ([33]).

For data set [5], the system named is Acinetobacter baumannii AB5075.
The subject of data set [6] is Single-donor human red blood cells. Description: Hemolysis assay. In kind it is cell-based. In short, it runs like this:
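Peptides at 300 μg/ml (SySA library) or 128 μg/ml (SySA-5 optimization library) were incubated in triplicate with washed single-donor RBCs (1 × 10^9 cells/ml) for 3 h at 37 °C. Supernatant A540 was background-normalized to PBS and expressed relative to 1% Triton X-100 (100% hemolysis).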

“Also recorded” adds a separate entry of the source. Read-outs that look alike come from different tables or passages of the source. Bridge positions count the residues as written; N and C are the ends. Ends that are not written are not given here. Peptide text beside a SMILES is read from it.

In the case of `CC[C@H](C)[C@@H]1NC(=O)[C@H](CCCCN)NC(=O)[C@H](C(C)C)NC(=O)CNC(=O)[C@H](CCCNC(=N)N)NC(=O)[C@H](CCCNC(=N)N)NC(=O)[C@H](CCCNC(=N)N)NC(=O)[C@H](CC(N)=O)NC(=O)[C@H](CC(N)=O)NC(=O)[C@H](CC(C)C)NC(=O)[C@H](CCCNC(=N)N)NC(=O)[C@H](C(C)C)NC(=O)[C@H](CCCNC(=N)N)NC(=O)[C@H](C(C)C)NC(=O)[C@@H](N)CSSC[C@@H](C(=O)O)NC(=O)[C@H](C(C)C)NC(=O)[C@H](CCC(N)=O)NC(=O)[C@H](CC(C)C)NC(=O)[C@H](CO)NC1=O` [SySA-49] (H-CVRVRLNNRRRGVKISLQVC-OH; disulfide 1-20; N-terminus and C-terminus assumed), in data set [1], the Ec W3110 MIC MH was determined as 32 mg/L, the W3110 MIC MHII was above 128 mg/L and the Ec W3110 MIC RPMI amounted to 8 mg/L. Besides, in data set [1] (W3110), the “W3110 MIC MH” value is 32 mg/L and the “W3110 MIC RPMI” value came to 8 mg/L. For the same molecule, the “molar ellipticity of CD spectrum at different concentrations (aggregation)” value in data set [2] is “remained relatively constant regardless of increased concentration; also recorded: equivalent at increased and reduced concentrations”. Further, in data set [3], the “%S-S” value is recorded as 91.4%.
Regarding “CLRIRVDDRRRRVRITLQVC (disulfide 1-20 (inferred))”, in data set [4], the l2FC_IPTG_15 is 0.055 and the l2FC_IPTG_100 worked out at 0.322.
In data set [4], “CVTIRVDNGGGGLRITLQVC (disulfide 1-20 (inferred))” registered a l2FC_IPTG_15 of -0.299 and a l2FC_IPTG_100 of 0.025.
The molecule `CC(C)C[C@@H]1NC(=O)[C@H](CCCNC(=N)N)NC(=O)[C@H](C(C)C)NC(=O)[C@H](CCCNC(=N)N)NC(=O)[C@H](CC(C)C)NC(=O)[C@@H](N)CSSC[C@@H](C(=O)O)NC(=O)[C@H](C(C)C)NC(=O)[C@H](CCC(N)=O)NC(=O)[C@H](CC(C)C)NC(=O)[C@H](CO)NC(=O)[C@H](C(C)C)NC(=O)[C@H](CCCCN)NC(=O)[C@H](C(C)C)NC(=O)[C@H](CCCNC(=N)N)NC(=O)CNC(=O)[C@H](CCCNC(=N)N)NC(=O)[C@H](CCCNC(=N)N)NC(=O)[C@H](CC(N)=O)NC(=O)[C@H](CC(N)=O)NC1=O` [SySA-5] (H-CLRVRLNNRRGRVKVSLQVC-OH; disulfide 1-20; N-terminus and C-terminus assumed) gave an Ec W3110 MIC MH in data set [1] of 16 mg/L. Moreover, the W3110 MIC MHII in data set [1] came out at 128 mg/L. For the same molecule, in data set [1], the Ec W3110 MIC RPMI stood at 4 mg/L. Further, the “W3110 MIC MH” value in data set [1] (E. coli W3110, standard Mueller-Hinton broth, 37°C, 18-24 h, median of n=3) was 16 mg/L. Further, in data set [1] (W3110), the “W3110 MIC RPMI” value is 4 mg/L. Also, the “AB5075 MIC FBS” value was above 128 mg/L in data set [5] (100% fetal bovine serum, replicate 1); above 128 mg/L in data set [5] (100% fetal bovine serum, replicate 2); above 128 mg/L in data set [5] (100% fetal bovine serum, replicate 3); above 128 mg/L in data set [5] (AB5075). Further, the “AB5075 MIC MH” value in data set [5] (AB5075) worked out at 32 mg/L; in data set [5] (Mueller-Hinton, replicate 1), 64 mg/L; in data set [5] (Mueller-Hinton, replicate 2), 32 mg/L; in data set [5] (Mueller-Hinton, replicate 3) it was 32 mg/L. The “%S-S” value in data set [3] came out at 100%.
In the case of “CRIKIDVDDGRRRVRLELQC (disulfide 1-20 (inferred))”, in data set [4], the l2FC_IPTG_15 is 0.041 and the l2FC_IPTG_100 amounted to 0.249.
In data set [1], `CC[C@H](C)[C@@H]1NC(=O)[C@H](CCCCN)NC(=O)[C@H](CC(C)C)NC(=O)CNC(=O)[C@H](CCCNC(=N)N)NC(=O)[C@H](CCCNC(=N)N)NC(=O)[C@H](CCCNC(=N)N)NC(=O)[C@H](CC(N)=O)NC(=O)[C@H](CC(N)=O)NC(=O)[C@H](CC(C)C)NC(=O)[C@H](CCCNC(=N)N)NC(=O)[C@H](C(C)C)NC(=O)[C@H](CCCNC(=N)N)NC(=O)[C@H](CC(C)C)NC(=O)[C@@H](N)CSSC[C@@H](C(=O)O)NC(=O)[C@H](C(C)C)NC(=O)[C@H](CCC(N)=O)NC(=O)[C@H](CC(C)C)NC(=O)[C@H](CO)NC1=O` [SySA-61] (H-CLRVRLNNRRRGLKISLQVC-OH; disulfide 1-20; N-terminus and C-terminus assumed) showed an Ec W3110 MIC MH of 32 mg/L, a W3110 MIC MHII above 128 mg/L and an Ec W3110 MIC RPMI of 8 mg/L. In addition, in data set [1] (W3110), the “W3110 MIC MH” value was determined as 32 mg/L and the “W3110 MIC RPMI” value came to 8 mg/L. The “%S-S” value in data set [3] stood at 91.5%.
For “CLRIRVNDRRRGVKITLEVC (disulfide 1-20 (inferred))”, in data set [4], the l2FC_IPTG_15 amounted to 0.457 and the l2FC_IPTG_100 was 0.630.
In data set [1], `CC(C)C[C@@H]1NC(=O)[C@H](CO)NC(=O)[C@H](C(C)C)NC(=O)[C@H](CCCCN)NC(=O)[C@H](C(C)C)NC(=O)[C@H](CCCNC(=N)N)NC(=O)[C@H](CCCNC(=N)N)NC(=O)[C@H](CCCNC(=N)N)NC(=O)CNC(=O)[C@H](CC(N)=O)NC(=O)[C@H](CC(N)=O)NC(=O)[C@H](CC(C)C)NC(=O)[C@H](CCCNC(=N)N)NC(=O)[C@H](C(C)C)NC(=O)[C@H](CCCNC(=N)N)NC(=O)[C@H](C(C)C)NC(=O)[C@@H](N)CSSC[C@@H](C(=O)O)NC(=O)[C@H](C(C)C)NC(=O)[C@H](CCC(N)=O)NC1=O` [SySA-26] (H-CVRVRLNNGRRRVKVSLQVC-OH; disulfide 1-20; N-terminus and C-terminus assumed) returned an Ec W3110 MIC MH of 16 mg/L, a W3110 MIC MHII above 128 mg/L and an Ec W3110 MIC RPMI of 16 mg/L. In data set [1] (W3110), the “W3110 MIC MH” value is 16 mg/L and the “W3110 MIC RPMI” value came out at 16 mg/L. The “%S-S” value in data set [3] is given as 100%.
Take “RGGRLCYCRRRFCVCVGR (disulfide (positions not given here)) [Protegrin]”: in data set [1], the Ec W3110 MIC MH is 0.5 mg/L, the W3110 MIC MHII amounted to 8 mg/L and the Ec W3110 MIC RPMI is 0.5 mg/L. For the same molecule, the hemolysis in data set [6] was 41.84%. Also, in data set [3], the “%S-S” value was found to be 100%.
Take “CRIKINIDDRGGTVKLEVQC (disulfide 1-20 (inferred))”: in data set [4], the l2FC_IPTG_15 is reported as -0.180 and the l2FC_IPTG_100 is on record as -0.210.
For `CC(C)C[C@@H]1NC(=O)CNC(=O)[C@H](CCCNC(=N)N)NC(=O)[C@H](CCCNC(=N)N)NC(=O)[C@H](CCCNC(=N)N)NC(=O)[C@H](CC(N)=O)NC(=O)[C@H](CC(N)=O)NC(=O)[C@H](CC(C)C)NC(=O)[C@H](CCCNC(=N)N)NC(=O)[C@H](C(C)C)NC(=O)[C@H](CCCNC(=N)N)NC(=O)[C@H](C(C)C)NC(=O)[C@@H](N)CSSC[C@@H](C(=O)O)NC(=O)[C@H](C(C)C)NC(=O)[C@H](CCC(N)=O)NC(=O)[C@H](CC(C)C)NC(=O)[C@H](CO)NC(=O)[C@H](C(C)C)NC(=O)[C@H](CCCNC(=N)N)NC1=O` [SySA-29] (H-CVRVRLNNRRRGLRVSLQVC-OH; disulfide 1-20; N-terminus and C-terminus assumed), in data set [1], the Ec W3110 MIC MH is 16 mg/L, the W3110 MIC MHII is above 128 mg/L and the Ec W3110 MIC RPMI stood at 8 mg/L. In addition, in data set [1] (W3110), the “W3110 MIC MH” value was 16 mg/L and the “W3110 MIC RPMI” value came to 8 mg/L. Also, in data set [3], the “%S-S” value is 100%.
